Values quoted from earlier work, collected in patent US20180353540A1, “Pharmaceutical composition for treating leukemia and preparation method thereof” (Yi Fan Pharmaceutical Academy (Beijing) Co., Ltd., priority 2015, published 2018).

Legend:
ME180 cells = conditions: non-toxic dose 0.5 μg/ml
HL-6 cells = conditions: non-toxic dose 0.5 μg/ml
[1] = system: SGC7901 human gastric adenocarcinoma cells

SMILES	induced differentiation effect on ME180 cells (ME180 cells)	expression of c-myc and H-ras oncogenes (RNA dot blot hybridization) (ME180 cells; ME180 cell line)	effect on HL-6 cells (differentiation, maturation, apoptosis) (HL-6 cells)	growth of SGC7901 human gastric adenocarcinoma cells in vitro [1]
CC1=C(/C=C/C(C)=C/C=C/C(C)=C/C(=O)O)C(C)(C)CCC1 [ATRA, all-trans retinoic acid]	better induced differentiation effects			
Cc1coc2c1C(=O)C(=O)c1c-2ccc2c1CCCC2(C)C [tanshinone IIA]	better induced differentiation effects	significantly reduced	can induce differentiation and maturation of tumor cells, accompanied by apoptosis	significantly inhibits the growth
